Assay results published in ChEMBL document CHEMBL1909046, “DrugMatrix in vitro pharmacology data”.

Assays:
[1] = biological target: T1, Alpha-1A adrenergic receptor (Rattus norvegicus, UniProt P43140); test: DRUGMATRIX: Alpha-1A adrenergic receptor radioligand binding (ligand: prazosin); format: cell membranes, Wistar, Submaxillary gland, Membrane; details: Not Active = under 50% inhibition at 10 µM
T1 sequence (P43140 whole entry): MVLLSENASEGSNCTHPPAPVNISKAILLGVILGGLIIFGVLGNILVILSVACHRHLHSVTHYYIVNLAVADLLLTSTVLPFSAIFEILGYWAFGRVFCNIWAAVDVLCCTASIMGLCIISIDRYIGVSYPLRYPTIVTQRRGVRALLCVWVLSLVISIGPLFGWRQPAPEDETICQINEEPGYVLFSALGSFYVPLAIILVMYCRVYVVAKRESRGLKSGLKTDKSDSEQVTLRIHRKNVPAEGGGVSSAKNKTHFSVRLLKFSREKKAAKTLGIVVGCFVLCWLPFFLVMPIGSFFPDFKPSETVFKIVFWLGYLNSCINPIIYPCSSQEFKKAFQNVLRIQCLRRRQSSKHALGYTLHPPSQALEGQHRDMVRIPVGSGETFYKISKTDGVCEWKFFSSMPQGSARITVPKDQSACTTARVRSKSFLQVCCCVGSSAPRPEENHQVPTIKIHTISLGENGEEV

Interstitial collagenase = biological target: T2, Interstitial collagenase (Homo sapiens, UniProt P03956); test: biochemical; format: tissue-based, Rheumatoid synovial fibroblasts;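 also: MMP-1 enzyme inhibition assay using a peptide substrate; in other assays of this panel Not Active means under 50% inhibition at 10 µM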
T2 sequence (P03956 whole entry): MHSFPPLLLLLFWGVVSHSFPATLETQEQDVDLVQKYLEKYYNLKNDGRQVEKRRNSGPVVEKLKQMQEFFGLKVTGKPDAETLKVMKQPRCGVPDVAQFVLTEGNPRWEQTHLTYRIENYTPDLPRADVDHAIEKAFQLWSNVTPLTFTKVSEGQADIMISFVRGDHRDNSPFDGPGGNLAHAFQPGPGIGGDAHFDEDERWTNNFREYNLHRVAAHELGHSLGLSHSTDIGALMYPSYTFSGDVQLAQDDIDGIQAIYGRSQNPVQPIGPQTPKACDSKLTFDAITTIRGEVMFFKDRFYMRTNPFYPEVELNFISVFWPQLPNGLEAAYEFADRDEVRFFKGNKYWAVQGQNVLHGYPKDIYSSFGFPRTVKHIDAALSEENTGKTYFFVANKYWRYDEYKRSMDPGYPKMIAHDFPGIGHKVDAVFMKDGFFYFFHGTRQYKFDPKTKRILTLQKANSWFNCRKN

[2] = biological target: T3, Neuropeptide Y receptor type 1 (Homo sapiens, UniProt P25929); format: cell membranes, Membrane; details: sk-n-mc; also: in other assays of this panel Not Active means under 50% inhibition at 10 µM
T3 sequence (P25929 whole entry): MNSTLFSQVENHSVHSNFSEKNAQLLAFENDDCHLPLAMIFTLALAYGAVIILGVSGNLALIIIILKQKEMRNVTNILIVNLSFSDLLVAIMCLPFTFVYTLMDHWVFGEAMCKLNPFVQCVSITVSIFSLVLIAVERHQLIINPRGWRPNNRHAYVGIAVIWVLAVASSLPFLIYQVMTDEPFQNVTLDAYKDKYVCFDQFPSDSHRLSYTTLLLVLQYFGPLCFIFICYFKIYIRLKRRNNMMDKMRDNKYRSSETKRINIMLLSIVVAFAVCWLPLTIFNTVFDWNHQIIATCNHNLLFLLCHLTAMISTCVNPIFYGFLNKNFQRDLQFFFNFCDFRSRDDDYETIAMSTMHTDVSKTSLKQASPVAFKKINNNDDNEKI

[3] = biological target: Voltage-gated inwardly rectifying potassium channel KCNH2 (Homo sapiens, UniProt Q12809); details: hek293; also: in other assays of this panel Not Active means under 50% inhibition at 10 µM
[4] = biological target: Sigma non-opioid intracellular receptor 1 (Homo sapiens, UniProt Q99720); test: DRUGMATRIX: Sigma1 radioligand binding (ligand: [3H] Haloperidol); format: cell membranes, Jurkat, Membrane; details: Not Active = under 50% inhibition at 10 µM
Cannabinoid receptor 1 = Cannabinoid receptor 1 (Homo sapiens, UniProt P21554); format: cell membranes, Chem-1, Membrane; details: chem-1; also: in other assays of this panel Not Active means under 50% inhibition at 10 µM
[5] = biological target: Epidermal growth factor receptor (Homo sapiens, UniProt P00533); test: DRUGMATRIX: Protein Tyrosine Kinase, EGF Receptor enzyme inhibition (substrate: Poly(Glu:Tyr)); format: cell-based, Insect cells; details: Not Active = under 50% inhibition at 10 µM
[6] = DRUGMATRIX: Sigma2 radioligand binding (ligand: [3H] Ifenprodil); format: cell membranes, Rattus norvegicus, Wistar, Brain, Membrane; details: Not Active = under 50% inhibition at 10 µM
[7] = biological target: 5-hydroxytryptamine receptor 2B (Homo sapiens, UniProt P41595); format: cell membranes, CHO-K1, Membrane; details: cho-k1; also: in other assays of this panel Not Active means under 50% inhibition at 10 µM
Sequence of 5-hydroxytryptamine receptor 2B (P41595 whole entry): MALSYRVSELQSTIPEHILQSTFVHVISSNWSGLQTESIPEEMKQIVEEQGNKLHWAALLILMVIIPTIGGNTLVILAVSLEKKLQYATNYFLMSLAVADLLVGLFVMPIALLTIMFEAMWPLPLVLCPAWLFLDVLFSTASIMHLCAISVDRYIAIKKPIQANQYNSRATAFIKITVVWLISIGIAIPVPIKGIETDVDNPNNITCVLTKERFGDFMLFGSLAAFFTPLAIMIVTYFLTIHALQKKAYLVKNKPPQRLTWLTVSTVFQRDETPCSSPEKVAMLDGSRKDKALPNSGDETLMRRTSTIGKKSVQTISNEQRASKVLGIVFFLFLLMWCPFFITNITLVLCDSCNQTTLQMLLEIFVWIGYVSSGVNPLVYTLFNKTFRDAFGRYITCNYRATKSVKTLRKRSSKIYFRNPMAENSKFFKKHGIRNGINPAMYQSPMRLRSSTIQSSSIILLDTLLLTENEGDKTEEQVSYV

Sequence of Sigma non-opioid intracellular receptor 1 (Q99720 whole entry): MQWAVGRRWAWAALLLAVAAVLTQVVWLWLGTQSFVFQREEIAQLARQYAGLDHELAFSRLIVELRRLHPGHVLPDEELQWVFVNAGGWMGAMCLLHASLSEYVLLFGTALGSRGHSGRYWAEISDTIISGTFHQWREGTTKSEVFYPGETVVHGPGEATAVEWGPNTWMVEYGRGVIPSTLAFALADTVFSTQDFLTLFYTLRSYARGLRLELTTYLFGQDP
Sequence of Cannabinoid receptor 1 (P21554 whole entry): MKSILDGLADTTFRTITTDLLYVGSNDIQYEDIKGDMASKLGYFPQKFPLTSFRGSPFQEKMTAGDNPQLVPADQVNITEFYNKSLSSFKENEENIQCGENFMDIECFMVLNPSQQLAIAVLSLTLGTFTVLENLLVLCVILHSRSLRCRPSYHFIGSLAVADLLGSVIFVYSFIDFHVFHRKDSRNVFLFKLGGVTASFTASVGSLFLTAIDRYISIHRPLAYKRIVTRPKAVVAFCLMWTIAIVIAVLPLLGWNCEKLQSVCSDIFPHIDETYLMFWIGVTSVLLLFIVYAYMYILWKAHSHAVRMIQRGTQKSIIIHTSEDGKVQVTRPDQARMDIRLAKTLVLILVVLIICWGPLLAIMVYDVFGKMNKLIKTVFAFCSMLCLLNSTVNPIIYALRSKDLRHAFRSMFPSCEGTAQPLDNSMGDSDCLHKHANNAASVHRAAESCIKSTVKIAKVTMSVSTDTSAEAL
Sequence of Voltage-gated inwardly rectifying potassium channel KCNH2 (Q12809 whole entry): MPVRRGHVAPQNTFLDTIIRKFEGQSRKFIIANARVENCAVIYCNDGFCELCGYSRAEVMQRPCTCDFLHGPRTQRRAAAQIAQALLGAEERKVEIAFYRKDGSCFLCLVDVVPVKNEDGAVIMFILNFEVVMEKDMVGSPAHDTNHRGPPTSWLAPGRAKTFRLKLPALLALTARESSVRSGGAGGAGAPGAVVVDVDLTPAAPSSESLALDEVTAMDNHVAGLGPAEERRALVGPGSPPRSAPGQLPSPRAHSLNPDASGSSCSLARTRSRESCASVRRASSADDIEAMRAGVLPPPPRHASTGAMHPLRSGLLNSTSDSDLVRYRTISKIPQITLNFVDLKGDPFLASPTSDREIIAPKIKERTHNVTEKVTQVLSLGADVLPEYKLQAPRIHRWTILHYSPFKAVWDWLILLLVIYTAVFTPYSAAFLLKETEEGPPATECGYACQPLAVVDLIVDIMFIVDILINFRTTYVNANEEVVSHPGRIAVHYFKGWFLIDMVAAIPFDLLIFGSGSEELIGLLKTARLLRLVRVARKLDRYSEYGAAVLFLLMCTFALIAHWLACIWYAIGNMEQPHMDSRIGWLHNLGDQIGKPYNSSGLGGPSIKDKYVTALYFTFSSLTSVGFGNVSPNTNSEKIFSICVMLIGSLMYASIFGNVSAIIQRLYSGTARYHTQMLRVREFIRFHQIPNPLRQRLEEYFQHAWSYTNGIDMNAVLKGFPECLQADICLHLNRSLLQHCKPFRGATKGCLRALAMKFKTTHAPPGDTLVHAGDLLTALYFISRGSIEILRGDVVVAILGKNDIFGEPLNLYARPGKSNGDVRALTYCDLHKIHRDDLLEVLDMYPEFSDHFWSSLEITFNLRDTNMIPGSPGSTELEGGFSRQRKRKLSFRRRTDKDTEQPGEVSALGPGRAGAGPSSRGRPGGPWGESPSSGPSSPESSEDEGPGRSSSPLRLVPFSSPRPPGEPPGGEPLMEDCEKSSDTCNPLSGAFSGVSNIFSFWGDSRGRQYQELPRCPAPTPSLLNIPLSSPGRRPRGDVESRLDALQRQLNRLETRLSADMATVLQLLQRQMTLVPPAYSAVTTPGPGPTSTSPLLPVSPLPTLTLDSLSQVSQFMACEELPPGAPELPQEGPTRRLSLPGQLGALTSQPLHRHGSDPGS
Sequence of Epidermal growth factor receptor (P00533 whole entry): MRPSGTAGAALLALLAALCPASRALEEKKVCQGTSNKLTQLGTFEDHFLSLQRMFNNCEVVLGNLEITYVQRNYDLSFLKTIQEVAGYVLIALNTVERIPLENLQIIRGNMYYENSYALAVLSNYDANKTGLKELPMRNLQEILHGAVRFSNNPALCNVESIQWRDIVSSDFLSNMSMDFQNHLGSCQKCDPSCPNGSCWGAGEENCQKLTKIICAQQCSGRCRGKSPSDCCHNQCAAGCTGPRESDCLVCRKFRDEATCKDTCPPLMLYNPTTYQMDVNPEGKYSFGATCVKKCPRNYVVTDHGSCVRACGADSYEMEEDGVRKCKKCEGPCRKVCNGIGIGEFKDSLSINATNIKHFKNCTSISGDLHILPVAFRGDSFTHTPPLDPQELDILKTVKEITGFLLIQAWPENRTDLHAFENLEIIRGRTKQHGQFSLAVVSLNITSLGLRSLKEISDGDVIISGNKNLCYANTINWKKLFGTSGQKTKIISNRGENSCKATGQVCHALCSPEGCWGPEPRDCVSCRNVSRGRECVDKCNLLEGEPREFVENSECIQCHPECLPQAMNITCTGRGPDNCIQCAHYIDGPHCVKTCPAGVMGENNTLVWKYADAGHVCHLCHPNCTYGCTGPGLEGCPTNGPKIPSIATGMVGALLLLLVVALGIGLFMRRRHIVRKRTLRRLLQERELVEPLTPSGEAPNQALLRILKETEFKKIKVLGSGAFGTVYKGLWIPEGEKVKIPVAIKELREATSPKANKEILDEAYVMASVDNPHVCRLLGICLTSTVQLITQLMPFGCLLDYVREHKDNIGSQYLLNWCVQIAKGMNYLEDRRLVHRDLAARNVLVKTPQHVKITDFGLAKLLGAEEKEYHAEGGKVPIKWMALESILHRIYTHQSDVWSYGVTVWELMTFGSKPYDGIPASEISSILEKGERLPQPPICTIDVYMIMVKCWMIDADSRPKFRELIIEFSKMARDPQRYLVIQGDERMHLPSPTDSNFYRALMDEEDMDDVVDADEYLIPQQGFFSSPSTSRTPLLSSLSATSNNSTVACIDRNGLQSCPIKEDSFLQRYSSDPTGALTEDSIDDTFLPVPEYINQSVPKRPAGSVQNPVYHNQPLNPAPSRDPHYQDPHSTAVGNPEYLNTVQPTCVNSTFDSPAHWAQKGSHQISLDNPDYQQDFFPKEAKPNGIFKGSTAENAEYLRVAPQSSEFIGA

| Structure (SMILES) | IC50 [1] | IC50 (Interstitial collagenase) | IC50 [2] | IC50 [3] | Ki [3] | IC50 ([4]; read-out: IC50) [nM] | Ki ([4]; read-out: Ki) [nM] | IC50 (Cannabinoid receptor 1) | IC50 ([5]; insect cells) | IC50 [6] | Ki [6] | IC50 ([4]; jurkat) | IC50 [7] | IC50 ([1]; read-out: IC50) [nM] | Ki ([1]; read-out: Ki) [nM] | IC50 ([6]; read-out: IC50) [nM] | Ki ([6]; read-out: Ki) [nM] | IC50 ([5]; read-out: IC50) [µM] |
| --- | --- | --- | --- | --- | --- | --- | --- | --- | --- | --- | --- | --- | --- | --- | --- | --- | --- | --- |
| CC(C)NCC(O)COc1cccc2ccccc12 (centres undefined) [PROPRANOLOL] | Not Active | Not Active | Not Active | Not Active | Not Active | 2870 | 1210 | Not Active | Not Active | – | – | – | – | – | – | – | – | – |
| COCCCOc1ccnc(C[S+]([O-])c2nc3ccccc3[nH]2)c1C (centres undefined) [RABEPRAZOLE] | Not Active | Not Active | Not Active | Not Active | Not Active | – | – | Not Active | Not Active | Not Active | Not Active | Not Active | Not Active | – | – | – | – | – |
| O=C(c1ccc(OCCN2CCCCC2)cc1)c1c(-c2ccc(O)cc2)sc2cc(O)ccc12 [RALOXIFENE] | – | Not Active | Not Active | Not Active | Not Active | – | – | Not Active | Not Active | – | – | – | – | 2200 | 892 | 385 | 237 | – |
| CNC(=C[N+](=O)[O-])NCCSCc1ccc(CN(C)C)o1 [RANITIDINE] | Not Active | Not Active | Not Active | Not Active | Not Active | – | – | Not Active | Not Active | Not Active | Not Active | Not Active | Not Active | – | – | – | – | – |
| CO[C@H]1/C=C/O[C@@]2(C)Oc3c(C)c(O)c4c(c3C2=O)C2=NC3(CCN(CC(C)C)CC3)NC2=C(NC(=O)/C(C)=C\C=C\[C@H](C)[C@H](O)[C@@H](C)[C@@H](O)[C@@H](C)[C@H](OC(C)=O)[C@@H]1C)C4=O [RIFABUTIN] | Not Active | Not Active | Not Active | Not Active | Not Active | – | – | Not Active | Not Active | Not Active | Not Active | Not Active | Not Active | – | – | – | – | – |
| CC(C)c1nc(CN(C)C(=O)N[C@H](C(=O)N[C@@H](Cc2ccccc2)C[C@H](O)[C@H](Cc2ccccc2)NC(=O)OCc2cncs2)C(C)C)cs1 [RITONAVIR] | Not Active | Not Active | Not Active | – | – | – | – | Not Active | Not Active | Not Active | Not Active | Not Active | Not Active | – | – | – | – | – |
| CC(C)CC(N(C)C)C1(c2ccc(Cl)cc2)CCC1 (centres undefined) [SIBUTRAMINE] | Not Active | Not Active | Not Active | Not Active | Not Active | – | – | Not Active | Not Active | Not Active | Not Active | Not Active | Not Active | – | – | – | – | – |
| [H]/N=C(/N)N[C@H]1[C@H](O)[C@@H](O)[C@H](O[C@@H]2O[C@@H](C)[C@](O)(C=O)[C@H]2O[C@@H]2O[C@@H](CO)[C@H](O)[C@@H](O)[C@@H]2NC)[C@@H](N/C(N)=N\[H])[C@@H]1O [STREPTOMYCIN] | Not Active | Not Active | Not Active | Not Active | Not Active | – | – | Not Active | Not Active | Not Active | Not Active | Not Active | Not Active | – | – | – | – | – |
| CC(C)(C)c1ccc(C(O)CCCN2CCC(C(O)(c3ccccc3)c3ccccc3)CC2)cc1 (centres undefined) [TERFENADINE] | Not Active | Not Active | Not Active | – | – | – | – | Not Active | – | Not Active | Not Active | Not Active | – | – | – | – | – | 3.57 |
| C[C@@H](N)[C@H]1CC[C@H](C(=O)Nc2ccncc2)CC1 [Y-27632] | Not Active | Not Active | Not Active | – | – | – | – | Not Active | – | Not Active | Not Active | Not Active | Not Active | – | – | – | – | – |
